{
  "source": "paper PMC10518255",
  "about": "“A first-in-class pan-lysyl oxidase inhibitor impairs stromal remodeling and enhances gemcitabine response and survival in pancreatic cancer” (Nature Cancer, 2023)",
  "key": {"MPO": {"system": "MPO", "experiment": "Immunohistochemistry of end-point KPC tumors: myeloperoxidase cell infiltration", "type": "in vivo, mouse", "conditions": "KPC tumours at endpoint; individual replicate values (Extended Data 6H)", "procedure": "All tissues or matrices, including patient TMAs, were fixed in 10% buffered formalin and embedded in paraffin. The 4-μm sections of samples were deparaffinized with xylene and rehydrated in graded ethanol washes. For immunohistochemistry, Bond Dewax Solution (AR9222) was used. Antigen retrieval was performed using Bond RX H2(30) protocol: HIER 30 min ER1 (citrate pH 6) OR ER2 (EDTA pH 9) at 100 °C. Slides were quenched in BOND Polymer Refine Detection (Leica Biosystems DS9800). […] Slides were digitized on an Aperio slide scanner and representative areas per tumor acquired and analyzed by researchers blinded to the conditions of the experiment.\nExtended Data Fig. 6 PXS-5505 in combination with gemcitabine in a KPC model. a. Quantification of proliferating cells (Ki67 positive nuclear staining) in KPC tumors at end point, treated as indicated. 5 fields of view (500 μm × 500 μm) per mouse and 10 mice per cohort were scored. […] Quantification of percent coverage of αSMA positive staining in KPC tumors at end point, treated as indicated. 3 fields of view (1000 μm × 1000 μm) per mouse and 10 mice per cohort were scored. […] Quantification of percent coverage of PDGFR-ß positive staining in KPC tumors at end point, treated as indicated. 3 fields of view (1000 μm × 1000 μm) per mouse and 10 mice per cohort were scored. […] 3 fields of view (500 μm × 500 μm) per mouse and 10 mice per cohort were scored. […]"}, "Plasma protein binding": {"experiment": "Plasma protein binding", "type": "in vitro ADME", "conditions": "In vitro (human), read-out: Plasma protein binding, % bound (converted)"}},
  "data": [
    {"molecule": "Cl.Cl.NC/C=C(\\F)CS(=O)(=O)c1cccc2cccnc12.O", "note": "[PXS-5505, (Z)-3-fluoro-4-(quinolin-8-ylsulfonyl)but-2-en-1-amine dihydrochloride monohydrate]", "values": [
      {"measurement": "number of myeloperoxidase (MPO+) cell infiltration", "setting": "MPO", "result": 11},
      {"measurement": "fraction unbound", "setting": "Plasma protein binding", "result": 0.78}
    ]}
  ]
}
